Experimental data reported in article PMC6532426 (Nature chemistry, 2019).

Biological target: active human CypA protein (Homo sapiens, UniProt P62937)
Assay: Surface plasmon resonance
Type: binding
Settings: assays of Fig. 5 (CypA SPR, IL-2)

Chain of active human CypA protein (P62937 whole entry): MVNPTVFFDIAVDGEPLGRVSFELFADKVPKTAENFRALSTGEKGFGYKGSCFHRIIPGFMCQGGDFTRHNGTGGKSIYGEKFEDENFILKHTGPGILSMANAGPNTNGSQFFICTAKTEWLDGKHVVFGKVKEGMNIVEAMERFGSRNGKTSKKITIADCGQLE

Row | immunosuppressive activity / CypA affinity in words | immunosuppressive activity / CypA affinity in words (listed as (–)-28) | SMILES
1 | completely inactive |  | CC(=O)O[C@@H]1OC[C@H]2CC(=O)CC[C@H]21 [(-)-24]
2 | completely inactive | inactive | CC1(C)CCCC(C)(C2=C[C@@H]3COC(=O)[C@@H]3CC2)C1 (stereo partly drawn) [compound 28]
